Columns and labels:
male C57/B6 mice [1] = assay: microRNA profile of plasma, acetaminophen treatment group vs control group; assay type: in vivo; details: 300 mg/kg single intraperitoneal injection, 24 hours post exposure, FIG. 3
Experimental: Approximately, 800 μl of QIAzol lysis reagent was added to 200 μl liquid sample. The sample was mixed in a tube followed by adding 200 μl of chloroform. After mixing rigorously for 15 seconds, the sample was then centrifuged at 12,000×g for 15 minutes. The upper aqueous phase was carefully transferred to a new collection tube, and 1.5 total volumes of ethanol was added. The sample was then applied directly to a glass membrane containing column and the RNA was bound and purified by three contiguous washing to remove unwanted contamination. The immobilized RNA was then collected from the membrane with a low salt elution buffer.
The male C57/B6 mice were randomly grouped into two groups, a treatment group (3 animals) and control group (4 animals). […] Mice were sacrificed at 24 hours post exposure, the plasma samples were collected and RNA was isolated.
The expression levels of microRNA sequences in the serum were used to make a microRNA profile. The differentially expressed microRNA sequences between the treatment group and the control group were clustered with the Hierarchical clustering method and is shown in FIG. 3.

male C57/B6 mice [2] = details: mouse, in vivo
Experimental: Quantitative PCR (QPCR) with microRNA specific primer sets were used to confirm the results from array hybridization. In brief, a SYBR Green based method, miScript real-time PCR (Qiagen Inc. Valencia, Calif., USA), or TaqMan primer set from Apply Biosystems, was used with 50 ng of total RNA from each sample. The first strand cDNA was generated according to the manufacturer's instruction. Approximately 2.5 ng of cDNA was used in the PCR reaction. The yield of 18 to 20 base pair fragments (based on SYBR Green intensity) corresponding to the specific microRNA species was monitored with the 7900HT fast real-time PCR system from Applied Biosystems (Applied Biosystems, Foster City, Calif.). QPCR results were analyzed by SDS 2.2.2, with a manual CT threshold value of 0.2.
The male C57/B6 mice were randomly grouped into nine different groups with 4 animals in each group. […] Mice were sacrificed and plasma samples were collected at 1, 3 and 24 hours post-exposure. The nine groups were: 1) 1 hour control; 2) 1 hour treatment 1; 3) 1 hour treatment 2; 4) 1 hour treatment 3; 5) 3 hour control; 6) 3 hour treatment 1; 7) 3 hour treatment 2; 8) 3 hour treatment 3; and 9) 24 hour treatment 3. […] The expression levels of two different microRNA sequences, mir-486 and mir-122, in the serum were profiled by quantitative polymerase chain reactions (Q-PCR). […]

`CC(=O)Nc1ccc(O)cc1` [acetaminophen] was tested, and the “levels of microRNA sequences in serum/plasma, treatment vs control” value (male C57/B6 mice [1]) was “levels of certain microRNA sequences in the serum could be used as an indication of the acetaminophen toxicity” and the “mir-486 and mir-122 intensities at one hour” value (male C57/B6 mice [2]) was “Clear changes”.

Reference: patent publication US8748101B2, “Methods, compositions, and devices utilizing MicroRNA to determine physiological conditions” (Battelle Memorial Institute, priority 2008, dated 2014)
